In brackets after ≈: the same amount, converted by molar mass. Like-named read-outs stand apart in the source and are kept apart here.
Experiments:
P. chrysogenum = experiment: broth microdilution susceptibility testing according to EUCAST; assay type: cell-based, Penicillium chrysogenum; conditions: Penicillium chrysogenum
Text: (§1) To identify encoded A. fumigatus FcyB, FcyA, Uprt, Uk and CntA activities in further fungal species, it was searched for A. fumigatus orthologs in biotechnology-relevant species (Aspergillus niger, Aspergillus oryzae, P. chrysogenum, Komagataella phaffii alias Pichia pastoris, S. cerevisiae, Trichoderma reesei) and in virulence-relevant species (Candida albicans, Cryptococcus neoformans, F. oxysporum). Orthologs to A. fumigatus proteins with an overall identity 40% were considered as putative orthologs if activities could be confirmed by susceptibility testing following a broth microdilution based method according to EUCAST (see Table 10).

A. niger = experiment: as above; assay type: cell-based, Aspergillus niger; conditions: Aspergillus niger
Text: as §1

A. fumigatus ΔfcyA = experiment: plate growth assay based susceptibility testing on solid AMM; assay type: cell-based, Aspergillus fumigatus; conditions: 100 μg/ml, pH5 as well as pH7
Experimental: (§2) Plate growth assay based susceptibility testing of A. fumigatus and P. chrysogenum was carried out using solid AMM, for F. oxysporum solid PDA was employed. Low pH medium contained 100 mM citrate buffer (pH5), neutral pH medium 100 mM MOPS buffer (pH7). For strains carrying PxylP tunable reporter genes (sGFP, mKate2PER, sGFPMIT, lacZ), 0.5% xylose was supplemented to the medium to induce gene expression.
(§3) Coding sequences of fcyA and uprt were disrupted in wt (A1160P+) using hygromycin B and zeocin resistance cassettes, respectively. Therefore, deletion constructs comprising approximately 1 kb of 5′ and 3′ NTR linked to the central antibiotic resistance cassette were generated using fusion PCR as previously described (Fraczek, et al., The Journal of antimicrobial chemotherapy 68, 1486-1496 (2013)). Correct integration of constructs was confirmed by Southern analysis (see FIG. 14).
Among other fungal species, A. fumigatus is susceptible to 5FC (Te Dorsthorst et al., Antimicrob Agents Chemother 48, 3147-3150 (2004); Te Dorsthorst et al., Antimicrobial agents and chemotherapy 49, 3341-3346 (2005)) and is therefore anticipated to harbor genes encoding CD and UPRT in addition to 5FC uptake. […]

C. neoformans = experiment: broth microdilution susceptibility testing according to EUCAST; assay type: cell-based, Cryptococcus neoformans; conditions: Cryptococcus neoformans
Text: as §1

C. albicans = experiment: as above; assay type: cell-based, Candida albicans; conditions: Candida albicans
Text: as §1

A. fumigatus Δuprt = experiment: plate growth assay based susceptibility testing on solid AMM; assay type: cell-based, Aspergillus fumigatus
Experimental: Furthermore, 5-FU supplementation inhibits ΔfcyB (see FIG. 4). Inactivation of uprt allows growth of A. fumigatus on AMM supplemented with 100 μg/ml 5FC or 5FU at pH7 (see FIG. 4). At concentrations 10-500 μg/ml 5FC or 5FU, independent of the pH (200 μg/ml 5FC as well as 5FU were also tested and the Δuprt strains grow).
as §2, §3
(§4) Among other fungal species, A. fumigatus is susceptible to 5FC (Te Dorsthorst et al., Antimicrob Agents Chemother 48, 3147-3150 (2004); Te Dorsthorst et al., Antimicrobial agents and chemotherapy 49, 3341-3346 (2005)) and is therefore anticipated to harbor genes encoding CD and UPRT in addition to 5FC uptake. […] To analyze their role in 5FC as well as 5FU activity, fcyA and uprt was inactivated in the A. fumigatus strain A1160P+ (Fraczek, et al., The Journal of antimicrobial chemotherapy 68, 1486-1496 (2013)), termed wt here, using hygromycin and phleomycine resistance based deletion cassettes. Due to the interdependency of 5FC activity and environmental pH (Gsaller et al., Antimicrob Agents Chemother 62 (2018); Te Dorsthorst et al., Antimicrob Agents Chemother 48, 3147-3150 (2004)) the contribution of both enzymes as well as FcyB to 5FC and 5FU activity at both pH5 and pH7 was investigated.

T. reesei = experiment: broth microdilution susceptibility testing according to EUCAST; assay type: cell-based, Trichoderma reesei; conditions: Trichoderma reesei
Text: as §1

A. fumigatus = experiment: as above; assay type: cell-based, Aspergillus fumigatus; conditions: Aspergillus fumigatus
Text: as §1

P. pastoris = experiment: as above; assay type: cell-based, Komagataella phaffii alias Pichia pastoris; conditions: Komagataella pastoris
Text: as §1

F. oxysporum = experiment: as above; assay type: cell-based, Fusarium oxysporum; conditions: Fusarium oxysporum
Text: as §1

S. cersvisiae = experiment: as above; assay type: cell-based, S. cerevisiae; conditions: Saccharomyces cerevisiae
Text: as §1

A. oryzae = experiment: as above; assay type: cell-based, Aspergillus oryzae; conditions: Aspergillus oryzae
Text: as §1

A. fumigatus ΔfcyB = experiment: plate growth assay based susceptibility testing on solid AMM; assay type: cell-based, Aspergillus fumigatus
Experimental: (§5) pH 5 transcriptionally activates fcyB mediated uptake of 5FC. […] Inactivation of fcyB leads to resistance at 10 μg/ml 5FC at pH 5. Inactivation of fcyB leads to resistance on AMM (AMM Composition: 55.5 mM D-glucose, 20.0 mM ammonium tartrate, 7 mM KCl, 2.1 mM MgSO4 x 7H2O, 11.2 mM KH2PO4, 0.09 μM Na2B4O7 x 10H2O, 1 μM CuSO4 x 5H2O, 10 μM FeSO4 x 7H2O, 4.5 μM MnSO4 x 4H2O, 3.1 μM Na2MoO4 x 10H2O, […] ZnSO4 x 7H2O, 0.7% Agar; finally adjusted to pH 6.5 using NaOH before autoclaving) supplemented with 10 μg/ml 5FC and 100 mM citrate buffer pH 5.
as §2, §4

[1] = system: A. fumigatus wt (A1160P+); experiment: as above; assay type: cell-based, Aspergillus fumigatus; conditions: for pH dependence of activity: A. fumigatus
Experimental: as §5, §2, §4

[2] = system: A. fumigatus with inactivated cntA; experiment: growth on AMM supplemented with 5-FUR; assay type: cell-based, Aspergillus fumigatus; conditions: AMM supplemented with 100 μg/ml
[3] = system: A. fumigatus with inactivated uk; experiment: growth on AMM supplemented with 5-FUR; assay type: cell-based, Aspergillus fumigatus; conditions: AMM supplemented with 100 μg/ml

Compound | MIC (P. chrysogenum; pH 5, read-out: MIC) | MIC (P. chrysogenum; pH 7, read-out: MIC) | MIC (A. niger; pH 5, read-out: MIC) | MIC (A. niger; pH 7, read-out: MIC) | MIC (C. neoformans; pH 5, read-out: MIC) | MIC (C. neoformans; pH 7, read-out: MIC) | MIC (C. albicans; pH 5, read-out: MIC) | MIC (C. albicans; pH 7, read-out: MIC) | MIC (T. reesei; pH 5, read-out: MIC) | MIC (T. reesei; pH 7, read-out: MIC) | MIC (A. fumigatus; pH 5, read-out: MIC) | MIC (A. fumigatus; pH 7, read-out: MIC) | MIC (P. pastoris; pH 5, read-out: MIC) | MIC (P. pastoris; pH 7, read-out: MIC) | MIC (F. oxysporum; pH 5, read-out: MIC) | MIC (F. oxysporum; pH 7, read-out: MIC) | MIC (S. cersvisiae; pH 5, read-out: MIC) | MIC (S. cersvisiae; pH 7, read-out: MIC) | MIC (A. oryzae; pH 5, read-out: MIC) | MIC (A. oryzae; pH 7, read-out: MIC) | also measured
O=c1[nH]cc(F)c(=O)[nH]1 [5FU, 5-fluorouracil] | 3.12 µg/mL (≈ 24 µM) | 3.12 µg/mL (≈ 24 µM) | 50 µg/mL (≈ 384 µM) | 0.39 µg/mL (≈ 3 µM) | 6.25 µg/mL (≈ 48 µM) | 12.5 µg/mL (≈ 96.1 µM) | 50 µg/mL (≈ 384 µM) | 0.39 µg/mL (≈ 3 µM) | 100 µg/mL (≈ 769 µM) | 0.39 µg/mL (≈ 3 µM) | 50 µg/mL (≈ 384 µM) | > 400 µg/mL | 0.39 µg/mL (≈ 3 µM) | > 400 µg/mL | 400 µg/mL (≈ 3080 µM) | > 400 µg/mL | 0.8 µg/mL (≈ 6.15 µM) | 100 µg/mL (≈ 769 µM) | 200 µg/mL (≈ 1540 µM) | 12.5 µg/mL (≈ 96.1 µM) | growth of ΔfcyA (A. fumigatus ΔfcyA): blocked growth; resistance of Δuprt (A. fumigatus Δuprt; 100 μg/ml, pH5 as well as pH7): high resistance; growth of Δuprt strains (A. fumigatus Δuprt; 200 μg/ml): grow; growth after inactivation of uprt (A. fumigatus Δuprt; AMM supplemented with 100 μg/ml, pH7): allows growth; growth of ΔfcyB (A. fumigatus ΔfcyB; 100 μg/ml, pH5 as well as pH7): blocked growth; effect of supplementation on ΔfcyB (A. fumigatus ΔfcyB; solid Aspergillus minimal medium, FIG. 4): inhibits; growth of wt ([1]; 100 μg/ml, pH5 as well as pH7): blocked growth; pH dependence of activity [1]: pH independent; concentrations that fully inhibit A. fumigatus growth ([1]; typically, AMM): > 100 µg/mL
O=c1[nH]c(=O)n([C@@H]2O[C@H](CO)[C@@H](O)[C@H]2O)cc1F [5FUR, 5-fluorouridine] | 3.12 µg/mL (≈ 11.9 µM) | 3.12 µg/mL (≈ 11.9 µM) | 0.8 µg/mL (≈ 3.05 µM) | 0.39 µg/mL (≈ 1.49 µM) | 3.12 µg/mL (≈ 11.9 µM) | 12.5 µg/mL (≈ 47.7 µM) | 0.39 µg/mL (≈ 1.49 µM) | 0.39 µg/mL (≈ 1.49 µM) | 0.39 µg/mL (≈ 1.49 µM) | 0.39 µg/mL (≈ 1.49 µM) | 6.25 µg/mL (≈ 23.8 µM) | > 400 µg/mL | 0.39 µg/mL (≈ 1.49 µM) | > 400 µg/mL | > 400 µg/mL | > 400 µg/mL | 6.25 µg/mL (≈ 23.8 µM) | 25 µg/mL (≈ 95.3 µM) | 6.25 µg/mL (≈ 23.8 µM) | 12.5 µg/mL (≈ 47.7 µM) | resistance after inactivation of cntA [2]: significantly increases resistance; resistance after inactivation of uk [3]: increases resistance; pH dependence of activity [1]: pH independent; concentrations that significantly inhibit A. fumigatus growth ([1]; AMM): > 100 µg/mL

Source: patent US20210363545A1, “GENETIC SELECTION MARKERS BASED ON ENZYMATIC ACTIVITIES OF THE PYRIMIDINE SALVAGE PATHWAY” (priority 2018, published 2021)
